{"source": "patent US20210355107A1", "about": "“MULTI-SUBSTITUTED PYRIDONE DERIVATIVES AND MEDICAL USE THEREOF” (Beijing Yuezhikangtai Biomedicines Co., Ltd., priority 2018, published 2021)", "biological_target": "T1, Ba/F3 Axl cells (Homo sapiens, UniProt P30530)", "T1 sequence (P30530 1-894)": "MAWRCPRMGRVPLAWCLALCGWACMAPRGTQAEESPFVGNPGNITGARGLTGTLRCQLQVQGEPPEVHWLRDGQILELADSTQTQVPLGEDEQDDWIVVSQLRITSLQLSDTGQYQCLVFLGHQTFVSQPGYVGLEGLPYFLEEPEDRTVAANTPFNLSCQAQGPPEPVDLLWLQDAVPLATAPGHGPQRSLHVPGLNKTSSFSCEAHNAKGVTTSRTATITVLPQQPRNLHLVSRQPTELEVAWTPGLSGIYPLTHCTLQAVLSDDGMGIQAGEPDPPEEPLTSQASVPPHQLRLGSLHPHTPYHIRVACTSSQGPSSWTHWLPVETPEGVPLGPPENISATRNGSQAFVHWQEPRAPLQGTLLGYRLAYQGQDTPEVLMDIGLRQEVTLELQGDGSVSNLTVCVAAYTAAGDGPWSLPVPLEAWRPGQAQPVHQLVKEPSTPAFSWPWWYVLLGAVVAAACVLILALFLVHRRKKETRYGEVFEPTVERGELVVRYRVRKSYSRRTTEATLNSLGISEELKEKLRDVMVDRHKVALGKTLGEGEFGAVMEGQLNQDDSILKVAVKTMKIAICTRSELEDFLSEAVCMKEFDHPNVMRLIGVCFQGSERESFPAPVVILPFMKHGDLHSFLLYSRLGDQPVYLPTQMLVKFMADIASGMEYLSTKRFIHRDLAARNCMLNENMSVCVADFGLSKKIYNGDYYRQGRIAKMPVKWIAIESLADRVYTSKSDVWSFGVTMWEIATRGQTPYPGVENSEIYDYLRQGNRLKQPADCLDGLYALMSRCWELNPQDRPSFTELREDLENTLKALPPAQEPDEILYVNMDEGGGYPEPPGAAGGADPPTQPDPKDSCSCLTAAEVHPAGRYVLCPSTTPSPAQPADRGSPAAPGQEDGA", "test": "Ba/F3 Axl cell proliferation, CellTiter-Glo Luminescent Cell Viability Assay", "assay_type": "cell-based", "details": "read-out: IC50 (nM) against Ba/F3 Axl cells, 100 ng/mL rhGas6, 72 h incubation", "description": "Test method: the inhibitory activity of the compounds against Ba/F3 Axl cell proliferation was evaluated using CellTiter-Glo® Luminescent Cell Viability Assay Kit (Promega).\nTest procedures: when thawing Ba/F3 Axl cells, the cell cryopreservation tube was shaken rapidly in a water bath at 37° C. to thaw the cells in 1 min. The cell suspension after thawing was mixed with RPMI1640 culture medium containing 10% FBS and centrifuged for 5 min at 1000 rpm, and the supernatant was discarded. The cell pellet was suspended in 5 mL of complete culture medium. […] Cell passage was performed at a cell density of 2×10^6 viable cells/mL. When the cells were passaged, the original cell suspension was directly made uniform by pipetting. 1/10 (namely 0.5 mL) of the cell suspension was kept, added with 4.5 mL of new complete culture medium and then made uniform by pipetting. The cell culture flask was then placed in a cell incubator for further culturing. Cell plating was performed when the cell confluence reached 2×10^6 viable cells/mL again. With reference to the method for cell passage, 1/10 (namely 0.5 mL) of the cell suspension was kept for further culturing when the cells were plated, and the remaining cell suspension was placed in a 15 mL centrifuge tube. The supernatant was discarded after centrifugation, and 5 mL of complete culture medium was used to resuspend the cells. […] A control group that contains no cell or compound but only complete culture medium and a control group that contains no compound but cells were set. The cell plates were incubated overnight in a cell incubator. […] The cell plates were then incubated in the cell incubator for 72 h. […] The cell plate was left to stand at room temperature for 20 min to stabilize luminescence signals, and the luminescence value of each well was scanned by a Spectramax M3 multi-functional microplate reader (Molecular Devices) at full wavelength.\nTest samples: example compounds of the present invention and bemcentinib (positive control compound).\nData analysis: cell viability was calculated for compounds at various concentrations using the following formula:\nCell viability(%)=(Lumtest compound−Lumculture solution control)/(Lumcell control−Lumculture solution control)×100%,\nwhere Lum refers to the luminescence value of each well of the test compound plate read by the multi-functional microplate reader.\nThe data were analyzed using GraphPad Prism 7.0 software, fitted with nonlinear S-curve regression to give dose-response curves, and IC50 values were calculated therefrom."}
{"smiles": "Nc1nc(Nc2ccc3c(c2)CC[C@@H](N2CCCC2)CC3)nn1-c1cc2c(nn1)-c1ccccc1CCC2", "note": "[Bemcentinib, bemcentinib, reference compound]", "values": [{"measurement": "GI50", "value": 26.9, "unit": "nM"}]}
